Results as given in patent US10548899B2, “Quinazolinone and benzotriazinone compounds with cholinergic muscarinin M1 receptor positive allosteric modulator activity” (TAKEDA PHARMACEUTICAL COMPANY LIMITED, priority 2015, dated 2020).
Where a name gives a salt, the structure may show the parent alone.

Molecular target: T1, human M1 receptor (hCHRM1) (Homo sapiens, UniProt P11229)
T1 construct: expressed in transfected cells; host or cells: CHO-K1
T1 sequence (P11229 1-460): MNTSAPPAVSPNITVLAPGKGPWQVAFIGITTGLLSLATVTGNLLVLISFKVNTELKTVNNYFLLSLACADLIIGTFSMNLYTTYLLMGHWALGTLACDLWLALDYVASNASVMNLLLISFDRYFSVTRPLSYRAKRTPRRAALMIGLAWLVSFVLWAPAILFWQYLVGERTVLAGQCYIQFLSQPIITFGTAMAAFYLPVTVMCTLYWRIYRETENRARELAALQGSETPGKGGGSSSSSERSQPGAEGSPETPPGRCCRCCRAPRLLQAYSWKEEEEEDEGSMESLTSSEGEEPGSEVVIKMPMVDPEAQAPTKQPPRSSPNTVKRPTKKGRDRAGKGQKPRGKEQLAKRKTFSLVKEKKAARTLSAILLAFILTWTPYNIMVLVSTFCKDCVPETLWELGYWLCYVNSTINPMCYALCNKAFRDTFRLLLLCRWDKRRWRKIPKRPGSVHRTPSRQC
Assay: Measurement of M1 receptor positive allosteric modulator (M1PAM) activity (calcium fluorescence, Fluo-4, FDSS)
Format: cell-based
Conditions: for activity (%) at 10 μM: 10 μM test compound, acetylcholine EC20 (final 0.8 nM) present, 100% = acetylcholine 1 μM, 0% = DMSO, CHO-K1 hCHRM1 cells; for EC50: inflection point of concentration-dependent curve, CHO-K1 cells stably expressing hCHRM1, in presence of acetylcholine at EC20 concentration (final 0.8 nM), read-out: IP value
Procedure: Measurement of M1 receptor positive allosteric modulator (M1PAM) activity
The activity of a test compound in the presence of acetylcholine at EC20 concentration (final concentration 0.8 nM), which affords an action corresponding to about 20% of the maximum activity, was measured as PAM activity. The method is as follows. CHO-K1 cells stably expressing a human M1 receptor (hCHRM1) were plated on a 384-well black clear bottom plate (BD Falcon) at 5,000 cells/well, and cultured in an incubator at 37° C., 5% CO2 for 1 day. The medium in the cell plate was removed, and assay buffer A containing a calcium indicator (Recording medium (DOJINDO LABORATORIES), 0.1% BSA (Wako Pure Chemical Industries, Ltd.), 2.5 μg/mL Fluo-4 AM (DOJINDO LABORATORIES), 0.08% Pluronic F127 (DOJINDO LABORATORIES) and 1.25 mM probenecid (DOJINDO LABORATORIES) were added at 30 μL/well. The cells were left standing in the incubator at 37° C., 5% CO2 for 30 min, and further left standing at room temperature for 30 min. A test compound prepared by diluting with assay buffer B (HESS (Invitrogen), 20 mM HEPES (Invitrogen), 0.1% BSA) containing 3.2 nM acetylcholine was added at 10 μL/well, and the fluorescence was measured by FDSS/μcell (Hamamatsu Photonics K.K.) for 1 min every for 1 second. With the definition that the amount of change in the fluorescence on addition of acetylcholine (final concentration 1 μM) is 100% and that on addition of DMSO instead of a test compound is 0%, the activity (%) of the test compound was calculated, and the inflection point in the concentration-dependent curve of the test compound was calculated as IP values.

Row | Structure (SMILES) | activity (%) at 10 μM | EC50
1 | Cc1c(Cc2ccc(-n3cccn3)cc2)cc2c(=O)n([C@H]3CCC[C@@H]3O)cnc2c1C (relative stereo) [Example 2, 3-(trans-2-hydroxycyclopentyl)-7,8-dimethyl-6-(4-(1H-pyrazol-1-yl)benzyl)quinazolin-4(3H)-one] | 96% | 0.061 µM
2 | Cc1c(Cc2ccc(-c3cnn(C)c3)nc2)cc2c(=O)n([C@H]3CCC[C@@H]3O)cnc2c1C (relative stereo) [Example 15, 3-(trans-2-hydroxycyclopentyl)-7,8-dimethyl-6-((6-(1-methyl-1H-pyrazol-4-yl)pyridin-3-yl)methyl)quinazolin-4(3H)-one] | 100% | 0.011 µM
3 | Cc1c(Cc2ccc(-c3ccn(C)n3)nc2)cc2c(=O)n([C@H]3CCCC[C@@H]3O)cnc2c1C [Example 57, 3-((1S,2S)-2-hydroxycyclohexyl)-7,8-dimethyl-6-((6-(1-methyl-1H-pyrazol-3-yl)pyridin-3-yl)methyl)quinazolin-4(3H)-one] | 98% | 0.0073 µM
4 | Cc1c(Cc2ccc(-c3cn(C)nn3)cc2)cc2c(=O)n([C@H]3CCC[C@@H]3O)cnc2c1C (relative stereo) [Example 11, 3-(trans-2-hydroxycyclopentyl)-7,8-dimethyl-6-(4-(1-methyl-1H-1,2,3-triazol-4-yl)benzyl)quinazolin-4(3H)-one] | 101% | 0.015 µM
5 | Cc1c(Cc2ccc(-c3cn(C)nn3)cc2)cc2c(=O)n([C@@H]3CCC[C@H]3O)cnc2c1C (single isomer, unassigned) [Example 23, 3-(trans-2-hydroxycyclopentyl)-7,8-dimethyl-6-(4-(1-methyl-1H-1,2,3-triazol-4-yl)benzyl)quinazolin-4(3H)-one] | 88% | 0.013 µM
6 | Cc1c(Cc2ccc(-c3cnn(C)c3)nc2)cc2c(=O)n(CC3CCCO3)cnc2c1Cl (stereo not shown) [Example 25, 8-chloro-7-methyl-6-((6-(1-methyl-1H-pyrazo-4-yl)pyridin-3-yl)methyl)-3-(tetrahydrofuran-2-ylmethyl)quinazolin-4(3H)-one hydrochloride] | 95% | 0.062 µM
7 | Cc1c(Cc2ccc(-c3cnn(C)c3)nc2)cc2c(=O)n([C@H]3CCC[C@@H]3O)cnc2c1C (single isomer, unassigned) [Example 50, 3-(trans-2-hydroxycyclopentyl)-7,8-dimethyl-6-((6-(1-methyl-1H-pyrazol-4-yl)pyridin-3-yl)methyl)quinazolin-4(3H)-one] | 102% | 0.0065 µM
8 | Cc1c(Cc2ccc(-n3cccn3)cc2)cc2c(=O)n([C@H]3CCCC[C@@H]3O)cnc2c1C (relative stereo) [Example 1, 3-(trans-2-hydroxycyclohexyl)-7,8-dimethyl-6-(4-(1H-pyrazol-1-yl)benzyl)quinazolin-4(3H)-one] | 92% | 0.052 µM
9 | Cc1cc2ncn([C@H]3CCC[C@@H]3O)c(=O)c2cc1Cc1ccc(-c2cn(C)nn2)cc1 (relative stereo) [Example 21, 3-(trans-2-hydroxycyclopentyl)-7-methyl-6-(4-(1-methyl-1H-1,2,3-triazol-4-yl)benzyl)quinazolin-4(3H)-one] | 97% | 0.051 µM
10 | Cc1c(Cc2ccc(-c3cnn(C)c3)nc2)cc2c(=O)n([C@H]3CCC[C@@H]3O)cnc2c1C (single isomer, unassigned) [Example 51, 3-(trans-2-hydroxycyclopentyl)-7,8-dimethyl-6-((6-(1-methyl-1H-pyrazol-4-yl)pyridin-3-yl)methyl)quinazolin-4(3H)-one] | 97% | 0.079 µM

More lines, now with the values ahead:

Row | activity (%) at 10 μM | EC50 | Structure (SMILES)
11 | 97% | 0.032 µM | Cc1c(Cc2ccc(-c3ccn(C)n3)cc2)cc2c(=O)n([C@H]3COCC[C@@H]3O)nnc2c1C (relative stereo) [Example 46, 3-(trans-4-hydroxytetrahydro-2H-pyran-3-yl)-7,8-dimethyl-6-(4-(1-methyl-1H-pyrazol-3-yl)benzyl)-1,2,3-benzotriazin-4(3H)-one]
12 | 98% | 0.015 µM | Cc1c(Cc2ccc(-n3cccn3)cc2)cc2c(=O)n([C@H]3COCC[C@@H]3O)cnc2c1C (relative stereo) [Example 3, 3-(trans-4-hydroxytetrahydro-2H-pyran-3-yl)-7,8-dimethyl-6-(4-(1H-pyrazol-1-yl)benzyl)quinazolin-4(3H)-one]
13 | 99% | 0.0074 µM | Cc1c(Cc2ccc(-n3cccn3)cc2)cc2c(=O)n([C@H]3CCOC[C@@H]3O)cnc2c1C [Example 55, 3-((3R,4S)-3-hydroxytetrahydro-2H-pyran-4-yl)-7,8-dimethyl-6-(4-(1H-pyrazol-1-yl)benzyl)quinazolin-4(3H)-one]
14 | 98% | 0.015 µM | Cc1c(Cc2ccc(-n3cccn3)cc2)cc2c(=O)n([C@H]3CCOC[C@@H]3O)nnc2c1C [Example 56, 3-((3R,4S)-3-hydroxytetrahydro-2H-pyran-4-yl)-7,8-dimethyl-6-(4-(1H-pyrazol-1-yl)benzyl)-1,2,3-benzotriazin-4(3H)-one]
15 | 98% | 0.006 µM | Cc1c(Cc2ccc(-n3cccn3)cc2)cc2c(=O)n([C@H]3COCC[C@@H]3O)cnc2c1C (single isomer, unassigned) [Example 52, 3-(trans-4-hydroxytetrahydro-2H-pyran-3-yl)-7,8-dimethyl-6-(4-(1H-pyrazol-1-yl)benzyl)quinazolin-4(3H)-one]
16 | 97% | 0.018 µM | Cc1c(Cc2ccc(-n3cccn3)cc2)cc2c(=O)n([C@H]3COCC[C@@H]3O)nnc2c1F [Example 49, 8-fluoro-3-((3S,4S)-4-hydroxytetrahydro-2H-pyran-3-yl)-7-methyl-6-(4-(1H-pyrazol-1-yl)benzyl)-1,2,3-benzotriazin-4(3H)-one]
17 | 95% | 0.014 µM | Cc1c(Cc2ccc(-c3ccn(C)n3)nc2)cc2c(=O)n([C@H]3COCC[C@@H]3O)nnc2c1C [Example 58, 3-((3S,4S)-4-hydroxytetrahydro-2H-pyran-3-yl)-7,8-dimethyl-6-((6-(1-methyl-1H-pyrazol-3-yl)pyridin-3-yl)methyl)-1,2,3-benzotriazin-4(3H)-one]
18 | 100% | 0.031 µM | Cc1c(Cc2ccc(-n3ccnc3)nc2)cc2c(=O)n([C@H]3COCC[C@@H]3O)nnc2c1C (relative stereo) [Example 42, 3-(trans-4-hydroxytetrahydro-2H-pyran-3-yl)-6-((6-(1H-imidazol-1-yl)pyridin-3-yl)methyl)-7,8-dimethyl-1,2,3-benzotriazin-4(3H)-one]
19 | 100% | 0.011 µM | Cc1c(Cc2ccc(-c3cn(C)nn3)nc2)cc2c(=O)n([C@H]3CCC[C@@H]3O)cnc2c1C (relative stereo) [Example 14, 3-(trans-2-hydroxycyclopentyl)-7,8-dimethyl-6-((6-(1-methyl-1H-1,2,3-triazol-4-yl)pyridin-3-yl)methyl)quinazolin-4(3H)-one]
20 | 100% | 0.014 µM | Cc1c(Cc2ccc(-n3cccn3)cc2)cc2c(=O)n([C@H]3COCC[C@@H]3O)nnc2c1C [Example 43, 3-((3S,4S)-4-hydroxytetrahydro-2H-pyran-3-yl)-7,8-dimethyl-6-(4-(1H-pyrazol-1-yl)benzyl)-1,2,3-benzotriazin-4(3H)-one]
